Molecular target: T1, Recombinant human renin (Homo sapiens, UniProt P00797)
T1 construct: isolate the active form (residues 67-406); made in house; host or cells: FreeStyle 293-F cells, transient expression of pcDNA3.1(+)/hREN
T1 sequence (P00797 67-406): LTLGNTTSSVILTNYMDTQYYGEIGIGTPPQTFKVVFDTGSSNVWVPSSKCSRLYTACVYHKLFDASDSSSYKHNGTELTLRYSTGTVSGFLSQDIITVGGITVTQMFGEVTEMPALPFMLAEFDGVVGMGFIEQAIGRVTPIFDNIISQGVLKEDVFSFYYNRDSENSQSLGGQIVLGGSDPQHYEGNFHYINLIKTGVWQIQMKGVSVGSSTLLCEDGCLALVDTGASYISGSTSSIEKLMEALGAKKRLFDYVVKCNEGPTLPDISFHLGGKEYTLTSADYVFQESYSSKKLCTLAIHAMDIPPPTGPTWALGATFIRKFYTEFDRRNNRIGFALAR
Experiment: In vitro enzymatic activity assay of renin inhibitors (fluorescence, QXL520/HiLyteFluo488 peptide substrate)
Type: biochemical
Settings: not given

| SMILES | IC50 |
| --- | --- |
| Cc1ccccc1-n1c(-c2ccccc2)c(C(=O)N2CCNCC2)n(CCNC(=O)Oc2ccccc2)c1=O [Example 248, Phenyl 2-(2-oxo-4-phenyl-5-(piperazine-1-carbonyl)-3-o-tolyl-2,3-dihydro-1H-imidazol-1-yl)ethylcarbamate] | > 1000 nM |

Same assay, conditions: recombinant human renin 3 nM, 1 μM substrate, pre-incubated 10 minutes at 37° C., incubation one hour, pH 7.4, 5% DMSO; read-out: IC50 of Exemplified Compounds Against Renin

| SMILES | IC50 |
| --- | --- |
| COCCCOc1cccc(-n2c(-c3ccccc3)c(C(=O)N3CCNCC3)n(CCCNS(=O)(=O)c3ccccc3)c2=O)c1 [Example 180, N-(3-(3-(3-(3-Methoxypropoxy)phenyl)-2-oxo-4-phenyl-5-(piperazine-1-carbonyl)-2,3-dihydro-1H-imidazol-1-yl)propyl)benzenesulfonamide] | 100 to 500 nM |
| Cc1ccccc1-n1c(-c2ccccc2)c(C(=O)N2CCNCC2)n(CCCNS(=O)(=O)c2ccccc2Cl)c1=O [Example 217, 2-Chloro-N-(3-(2-oxo-4-phenyl-5-(piperazine-1-carbonyl)-3-o-tolyl-2,3-dihydro-1H-imidazol-1-yl)propyl)benzenesulfonamide] | < 100 nM |
| O=C(c1c(-c2ccccc2)n(C2CCCCC2)c(=O)n1Cc1cccc(-n2cccc2)c1)N1CCNCC1 [Example 72, 1-(3-(1H-Pyrrol-1-yl)benzyl)-3-cyclohexyl-4-phenyl-5-(piperazine-1-carbonyl)-1H-imidazol-2(3H)-one] | 100 to 500 nM |
| COc1cc(Cn2c(C(=O)N3CCNCC3)c(-c3ccccc3)n(-c3ccccc3)c2=O)cc(OC)c1 [Example 86, 1-(3,5-Dimethoxybenzyl)-3,4-diphenyl-5-(piperazine-1-carbonyl)-1H-imidazol-2(3H)-one] | 100 to 500 nM |
| O=C(c1c(-c2ccccc2)n([C@@H]2CCCC[C@H]2O)c(=O)n1Cc1cccc(Oc2ccccc2)c1)N1CCNCC1 [Example 106, 1-((1R,2R)-2-Hydroxycyclohexyl)-3-(3-phenoxybenzyl)-5-phenyl-4-(piperazine-1-carbonyl)-1H-imidazol-2(3H)-one] | 100 to 500 nM |
| O=C(c1ccco1)N1CCCC(n2c(-c3ccccc3)c(C(=O)N3CCNCC3)n(Cc3ccccc3)c2=O)C1 (stereo not shown) [Example 97, 1-Benzyl-3-(1-(furan-2-carbonyl)piperidin-3-yl)-4-phenyl-5-(piperazine-1-carbonyl)-1H-imidazol-2(3H)-one] | > 1000 nM |
| O=C(c1ccccc1)N1CCCC(n2c(-c3ccccc3)c(C(=O)N3CCNCC3)n(Cc3ccccc3)c2=O)C1 (stereo not shown) [Example 95, 1-(1-Benzoylpiperidin-3-yl)-3-benzyl-5-phenyl-4-(piperazine-1-carbonyl)-1H-imidazol-2(3H)-one] | > 1000 nM |
| O=C(c1c(-c2ccccc2)n(-c2cccc(N3CCOCC3)c2)c(=O)n1CCCNS(=O)(=O)c1ccccc1)N1CCNCC1 [Example 175, N-(3-(3-(3-Morpholinophenyl)-2-oxo-4-phenyl-5-(piperazine-1-carbonyl)-2,3-dihydro-1H-imidazol-1-yl)propyl)benzenesulfonamide] | 100 to 500 nM |
| Cc1ccccc1-n1c(-c2ccccc2)c(C(=O)N2CCNCC2)n(CCNS(=O)(=O)c2ccccc2C)c1=O [Example 208, 2-Methyl-N-(2-(2-oxo-4-phenyl-5-(piperazine-1-carbonyl)-3-o-tolyl-2,3-dihydro-1H-imidazol-1-yl)ethyl)benzenesulfonamide] | 500 to 1000 nM |
| Cc1ccccc1-n1c(-c2ccccc2)c(C(=O)N2CCNCC2)n(Cc2ccc(F)c(F)c2)c1=O [Example 144, 1-(3,4-Difluorobenzyl)-4-phenyl-5-(piperazine-1-carbonyl)-3-o-tolyl-1H-imidazol-2(3H)-one] | 500 to 1000 nM |
| O=C(c1cccc(Cn2c(C(=O)N3CCNCC3)c(-c3ccccc3)n(-c3cccc(N4CCOCC4)c3)c2=O)c1)N1CCCCC1 [Example 58, 1-(3-Morpholinophenyl)-5-phenyl-4-(piperazine-1-carbonyl)-3-(3-(piperidine-1-carbonyl)benzyl)-1H-imidazol-2(3H)-one] | > 1000 nM |
| COCCCOc1cccc(-n2c(-c3ccccc3)c(C(=O)N3CCNCC3)n(CCNS(=O)(=O)c3ccccc3)c2=O)c1 [Example 183, N-(2-(3-(3-(3-Methoxypropoxy)phenyl)-2-oxo-4-phenyl-5-(piperazine-1-carbonyl)-2,3-dihydro-1H-imidazol-1-yl)ethyl)benzenesulfonamide] | > 1000 nM |
| COc1ccccc1-n1c(-c2ccccc2)c(C(=O)N2CCNCC2)n(CCCNC(=O)CC(C)C)c1=O [Example 167, N-(3-(3-(2-Methoxyphenyl)-2-oxo-4-phenyl-5-(piperazine-1-carbonyl)-2,3-dihydro-1H-imidazol-1-yl)propyl)-3-methylbutanamide] | > 1000 nM |
| COc1cccc(Cn2c(C(=O)N3CCNCC3)c(-c3ccccc3)n(-c3ccccc3OC)c2=O)c1 [Example 147, 1-(3-Methoxybenzyl)-3-(2-methoxyphenyl)-4-phenyl-5-(piperazine-1-carbonyl)-1H-imidazol-2(3H)-one] | > 1000 nM |
| Nc1nc(Cn2c(C(=O)N3CCNCC3)c(-c3ccccc3)n(-c3ccccc3)c2=O)cs1 [Example 50, 1-((2-Aminothiazol-4-yl)methyl)-3,4-diphenyl-5-(piperazine-1-carbonyl)-1H-imidazol-2(3H)-one] | 500 to 1000 nM |
| O=C(c1c(-c2ccccc2)n(C2CCCCC2)c(=O)n1CCc1ccccc1)N1CCNCC1 [Example 71, 1-Cyclohexyl-3-phenethyl-5-phenyl-4-(piperazine-1-carbonyl)-1H-imidazol-2(3H)-one] | 100 to 500 nM |
| Cc1ccccc1-n1c(-c2ccccc2)c(C(=O)N2CCNCC2)n(CCCNS(=O)(=O)C(C)C)c1=O [Example 239, N-(3-(2-oxo-4-phenyl-5-(piperazine-1-carbonyl)-3-o-tolyl-2,3-dihydro-1H-imidazol-1-yl)propyl)propane-2-sulfonamide] | > 1000 nM |
| Cc1ccccc1-n1c(-c2ccccc2)c(C(=O)N2CCNCC2)n(CCCNC(=O)C(C)C)c1=O [Example 246, N-(3-(2-oxo-4-phenyl-5-(piperazine-1-carbonyl)-3-o-tolyl-2,3-dihydro-1H-imidazol-1-yl)propyl)isobutyramide] | > 1000 nM |
| O=C(c1c(-c2ccccc2)n(-c2ccccc2)c(=O)n1Cc1nnc(C2CC2)s1)N1CCNCC1 [Example 48, 1-((5-Cyclopropyl-1,3,4-thiadiazol-2-yl)methyl)-3,4-diphenyl-5-(piperazine-1-carbonyl)-1H-imidazol-2(3H)-one] | > 1000 nM |
| O=C(c1c(-c2ccccc2)n(-c2ccccn2)c(=O)n1Cc1ccccc1)N1CCNCC1 [Example 46, 1-Benzyl-4-phenyl-5-(piperazine-1-carbonyl)-3-(pyridin-2-yl)-1H-imidazol-2(3H)-one] | > 1000 nM |
| O=C(c1c(-c2ccccc2)n(-c2cccc(N3CCOCC3)c2)c(=O)n1Cc1cccc(OCc2ccccc2)c1)N1CCNCC1 [Example 76, 1-(3-(Benzyloxy)benzyl)-3-(3-morpholinophenyl)-4-phenyl-5-(piperazine-1-carbonyl)-1H-imidazol-2(3H)-one] | < 100 nM |
| O=C(c1[nH]c(=O)n(C2CCCCC2)c1-c1ccccc1)N1CCNCC1 [Example 29, 1-Cyclohexyl-5-phenyl-4-(piperazine-1-carbonyl)-1H-imidazol-2(3H)-one] | 500 to 1000 nM |
| Cc1ccccc1-n1c(-c2ccccc2)c(C(=O)N2CCNCC2)n(CCCNC(=O)NC(C)C)c1=O [Example 227, 1-Isopropyl-3-(3-(2-oxo-4-phenyl-5-(piperazine-1-carbonyl)-3-o-tolyl-2,3-dihydro-1H-imidazol-1-yl)propyl)urea] | > 1000 nM |
| O=C(c1c(-c2ccccc2)n(C2CCCN(S(=O)(=O)c3ccccc3)C2)c(=O)n1Cc1ccccc1)N1CCNCC1 (stereo not shown) [Example 100, 1-Benzyl-4-phenyl-3-(1-(phenylsulfonyl)piperidin-3-yl)-5-(piperazine-1-carbonyl)-1H-imidazol-2(3H)-one] | 500 to 1000 nM |
| O=C(c1c(-c2ccccc2)n(-c2ccccc2)c(=O)n1Cc1ccc(F)c(F)c1)N1CCNCC1 [Example 52, 1-(3,4-Difluorobenzyl)-3,4-diphenyl-5-(piperazine-1-carbonyl)-1H-imidazol-2(3H)-one] | 100 to 500 nM |
| Cn1c(C(=O)N2CCNC[C@H]2Cc2ccccc2)c(-c2ccccc2)n(C2CCCCC2)c1=O [Example 65, (R)-4-(2-Benzylpiperazine-1-carbonyl)-1-cyclohexyl-3-methyl-5-phenyl-1H-imidazol-2(3H)-one] | < 100 nM |
| Cc1ccccc1-n1c(-c2ccccc2)c(C(=O)N2CCNCC2)n(CCNC(=O)c2ccccc2Cl)c1=O [Example 231, 2-Chloro-N-(2-(2-oxo-4-phenyl-5-(piperazine-1-carbonyl)-3-o-tolyl-2,3-dihydro-1H-imidazol-1-yl)ethyl)benzamide] | > 1000 nM |
| O=C(c1c(-c2ccccc2)n(-c2cccc(N3CCOCC3)c2)c(=O)n1CCNS(=O)(=O)c1ccccc1)N1CCNCC1 [Example 185, N-(2-(3-(3-Morpholinophenyl)-2-oxo-4-phenyl-5-(piperazine-1-carbonyl)-2,3-dihydro-1H-imidazol-1-yl)ethyl)benzenesulfonamide] | > 1000 nM |
| Cc1ccccc1-n1c(-c2ccccc2)c(C(=O)N2CCNCC2)n(CCNC(=O)c2cccc(Cl)c2)c1=O [Example 232, 3-Chloro-N-(2-(2-oxo-4-phenyl-5-(piperazine-1-carbonyl)-3-o-tolyl-2,3-dihydro-1H-imidazol-1-yl)ethyl)benzamide] | 500 to 1000 nM |
| COc1ccccc1-n1c(-c2ccccc2)c(C(=O)N2CCNCC2)n(Cc2cccc(OCCOc3ccccc3)c2)c1=O [Example 188, 1-(2-Methoxyphenyl)-3-(3-(2-phenoxyethoxy)benzyl)-5-phenyl-4-(piperazine-1-carbonyl)-1H-imidazol-2(3H)-one] | 100 to 500 nM |

Reference: patent publication US8148367B2 (Takeda Pharmaceutical Company Limited, priority 2008, dated 2012)
